Where no end group is shown, it is not given here.
Columns and labels:
Type in all cases: biochemical
[1] = ORAC oxygen radical absorbance capacity (USTM 192), in tubo; design: ORAC: unit not given here; details: for ORAC: Tables III-IX, unit not given; for ORAC/peroxyl: Table II
Description: (§1) In the course of the study, polypeptides were prepared by conventional synthesis methods and screened in tubo for antioxidant activity for peroxyl radicals (ROO.), superoxide radicals (O2.^−) and hydroxyl radicals (.OH).
(§2) In the screening standard testing for oxygen radical absorbance capacity (ORAC), hydroxyl radical absorbance capacity (HORAC), superoxide radical absorbance capacity (SORAC) and superoxide dismutase activity (SOD) were conducted with the test polypeptides. Testing was conducted according to USTM 190 (HORAC), USTM 191 (SORAC), USTM 192 (ORAC) and USTM 193 (SOAC) (SOD).
(§3) The peptides were tested in tubo for their antioxidant properties and tested against reference/known antioxidants. The evaluation of the antioxidant properties were conducted by determination of the ORAC (USTM 192), HORAC (USTM 190) and SOD (USTM 193) test methods.

[2] = HORAC hydroxyl radical absorbance capacity (USTM 190), in tubo; design: HORAC: unit not given here; details: for HORAC: Tables III-IX, unit not given; for HORAC/hydroxyl: Table II
Description: as §1, §2, §3

[3] = SORAC superoxide radical absorbance capacity (USTM 191), in tubo; details: Tables III-VIII; for SORAC: result in words; for SORAC (IC25): cells marked (IC25)
Description: Tables I to IX shown below are a compilation of polypeptides studied by the inventors to ascertain those elements of the molecular structure that contribute to or negate antioxidant activity. In the course of the study, polypeptides were prepared by conventional synthesis methods and screened in tubo for antioxidant activity for peroxyl radicals (ROO.), superoxide radicals (O2.^−) and hydroxyl radicals (.OH).
In the screening standard testing for oxygen radical absorbance capacity (ORAC), hydroxyl radical absorbance capacity (HORAC), superoxide radical absorbance capacity (SORAC) and superoxide dismutase activity (SOD) were conducted with the test polypeptides. Testing was conducted according to USTM 190 (HORAC), USTM 191 (SORAC), USTM 192 (ORAC) and USTM 193 (SOAC) (SOD). Upon review of the results as indicated in the Tables, the inventors have discovered certain elements of the polypeptide structure as recited in claim 1 that are key contributors to determination of antioxidant activity.

[4] = SOD superoxide dismutase activity (USTM 193), in tubo; details: Table II; for SOD/superoxide, Active25: cells marked (Active25)
Description: as §2, §3

| Compound | ORAC [1] | HORAC [2] | SORAC [3] | further results |
| --- | --- | --- | --- | --- |
| WrYR-NH2 [RED20] | 4448 | 1666 | No capacity |  |
| wRyR-NH2 [RED22] | 5383 | 1686 | No capacity |  |
| YHFR [IMM2] |  | 3036 |  | SORAC (IC25) [3]: 5(IC25) |
| WRYR-NH2 [RED6] | 4488 | 1548 | No capacity |  |
| YkYkYk [RED34] | 355 | 1053 |  |  |
| NCCC(=O)N[C@@H](Cc1c[nH]cn1)C(=O)O [Carnosine, β-alanyl-histidine, reference compound] |  |  |  | ORAC/peroxyl [1]: 354 μmol GAE/g; HORAC/hydroxyl [2]: 2099 μmol GAE/g; SOD/superoxide, Active50 [4]: 0 U/mg |
| HYHY [AO1, short chain polypeptide of the invention] | 4748 | 33489 |  | ORAC/peroxyl [1]: 4748 μmol GAE/g; HORAC/hydroxyl [2]: 33489 μmol GAE/g; SOD/superoxide, Active25 [4]: 6 (Active25) U/mg; SORAC (IC25) [3]: 6(IC25) |
| Ac-DESLESTRRM-NH2 [AC-SNP4] | No capacity | No capacity |  |  |
| WKYK-NH2 [RED25] | 4168 | 2476 | No capacity |  |
| Ac-RRMLQLVEE-NH2 [AC-SNP1] | No capacity | No capacity |  |  |
| wRYR-NH2 [RED24] | 4077 | 2225 | No capacity |  |
| RYHM [AO2.1] | 5390 | 131574 |  | ORAC/peroxyl [1]: 5390 μmol GAE/g; HORAC/hydroxyl [2]: 132591 μmol GAE/g |
| KRKYWW-NH2 [RED2] | 1837 | 1063 | No capacity |  |
| Ac-EEMLERQRR-NH2 [AC-SNP3] | No capacity | No capacity |  |  |
| Ac-wRyR-NH2 [RED27] | 5342 |  | No capacity |  |
| RRHM [CP2] | 1204 | 321448 |  | ORAC/peroxyl [1]: 1204 μmol GAE/g; HORAC/hydroxyl [2]: 321448 μmol GAE/g; SORAC (IC25) [3]: 6(IC25) |
| O=C1O[C@H]([C@@H](O)CO)C(O)=C1O [Vitamin C, reference compound] |  |  |  | ORAC/peroxyl [1]: 4456 μmol GAE/g; HORAC/hydroxyl [2]: 0 μmol GAE/g; SOD/superoxide, Active50 [4]: 752 U/mg |
| RRH [CP2.6] |  | 41073 |  |  |
| wRyRy-NH2 [RED28] | 5216 |  |  | SORAC (IC25) [3]: 3(IC25) |
| RyR-NH2 [RED32] | 3385 |  | No capacity |  |

| Compound | ORAC [1] | HORAC [2] | SORAC [3] | further results |
| --- | --- | --- | --- | --- |
| Ac-EEVKRK-NH2 [AC-SYN1] | No capacity | No capacity |  |  |
| CWRYR-NH2 [RED11] | 2007 | 625 | No capacity |  |
| HRHM [CP2.5] | 952 | 10192 |  |  |
| RwRyR-NH2 [RED26] | 4461 |  | No capacity |  |
| Ac-KKKEEMQRR-NH2 [AC-SNP7] | No capacity | No capacity |  |  |
| fkwR-NH2 [RED9] | 2202 | 752 | No capacity |  |
| kfRw-NH2 [RED7] | 2120 | 1124 | No capacity |  |
| Ac-EELMSDIKK-NH2 [AC-SYN2] | No capacity | No capacity |  |  |
| wRwR-NH2 [RED31] | 4652 |  | No capacity |  |
| YWPW [S2] | 5917 |  | No capacity |  |
| HWPY [S1] | 5955 |  |  | SORAC (IC25) [3]: 13(IC25) |
| WRYr-NH2 [RED19] | 4350 | 1457 | No capacity |  |
| RYHW [AO2, short chain polypeptide of the invention] | 9328 | 41882 |  | ORAC/peroxyl [1]: 9328 μmol GAE/g; HORAC/hydroxyl [2]: 41882 μmol GAE/g; SOD/superoxide, Active25 [4]: 4 (Active25) U/mg; SORAC (IC25) [3]: 4(IC25) |
| Ac-Valérate-EEMQRRKKK-NH2 ({Ac-Valérate}-EEMQRRKKK-NH2; not fully specified; printed as Ac-Valérate-EEMQRRKKK-NH2) [AC-SNP6] | No capacity | No capacity |  |  |
| HWRF [IMM1] | 2422 |  |  | SORAC (IC25) [3]: 5(IC25) |
| wRyRw-NH2 [RED29] | 5512 |  | No capacity |  |
| WrYr-NH2 [RED18] | 4758 | 2982 | No capacity |  |
| Ac-EEMQRRKKK-NH2 [AC-SNP5] | No capacity | No capacity |  |  |
| WRyR-NH2 [RED21] | 4816 | 2472 |  | SORAC (IC25) [3]: 7(IC25) |
| WRYR (not fully specified (C-terminus)) [RED23] | 4091 | 2089 | No capacity |  |

From patent US9464111B2, “Short peptides and a method of use as an antioxidant” (L'OREAL, priority 2014, dated 2016)
